Reference: US20240083857A1, “2-Methyl-Quinazolines” (Bayer Pharma Aktiengesellschaft, priority 2017, published 2024)

Assays:
[1] = biological target: human SOS1 (loading of human K-Ras^G12C-GDP with fluorescent GTP-analog) (Homo sapiens, UniProt Q07889); assay: Biochemical assay 3: K-Ras^G12C activation assay by hSOS1 (HTRF); settings: read-out: Assay 3 (KRAS-Activation by SOS no GTP) activity expressed as % inhibition at 20 μM; no GTP; at 20 μM
From the text: Biochemical assay 3: K-Ras^G12C Activation Assay by hSOS1
K-Ras is a small GTPase that can bind GDP and GTP. The guanine nucleotide exchange factor SOS catalyzes the activation of K-Ras by promoting the exchange of GDP to GTP. SOS binds to K-Ras-GDP thereby opening the GDP-binding pocket to facilitate GDP release. Rebinding of excess nucleotide leads to dissociation of the K-Ras-SOS intermediate complex leaving K-Ras loaded with the nucleotide.
This assay quantifies human SOS1-mediated loading of human K-Ras^G12C-GDP with a fluorescent GTP-analog. Detection of successful loading is achieved by measuring homogenous time-resolved fluorescence resonance energy transfer (HTRF) from antiGST-Terbium (FRET donor) bound to GST-K-RasG12C to the loaded fluorescent GTP analog (FRET-acceptor).
The fluorescent GTP-analog EDA-GTP-Dy647P1 (2′/3′-O-(2-Aminoethyl-carbamoyl)-guanosine-5′-triphosphate labelled with Dy647P1 (Dyomics GmbH, Germany)) was synthesized by Jena Biosciences GmbH (Germany) and supplied as a 1 mM aqueous solution.
(§1) The assay buffer contained 10 mM HEPES pH 7.4 (Applichem), 150 mM NaCl (Sigma), 5 mM MgCl2 (Sigma), 1 mM DTT (Thermofisher), 0.05% BSA Fraction V, pH 7.0, (ICN Biomedicals), 0.0025% (v/v) Igepal (Sigma).
Concentrations of protein batches used were optimized to be within the linear range of the HTRF signal. A Ras working solution was prepared in assay buffer containing typically 100 nM GST-hK-RasG12C and 2 nM antiGST-Tb (Cisbio, France). A hSOS1 working solution was prepared in assay buffer containing typically 20 nM hSOS1 and 200 nM EDA-GTP-Dy647P1. An inhibitor control solution was prepared in assay buffer containing 200 nM EDA-GTP-Dy647P1 without hSOS1.
(§2) Fifty nl of a 100-fold concentrated solution of the test compound in DMSO were transferred into a black microtiter test plate (384 or 1536, Greiner Bio-One, Germany). For this, either a Hummingbird liquid handler (Digilab, MA, USA) or an Echo acoustic system (Labcyte, CA, USA) was used.
(§3) All steps of the assay were performed at 20° C. A volume of 2.5 μl of the Ras working solution was added to all wells of the test plate using a Multidrop dispenser (Thermo Labsystems). After 10 min preincubation, 2.5 μl of the hSOS1 working solution were added to all wells except for those wells at the side of the test plate that were subsequently filled with 2.5 μl of the inhibitor control solution. After 30 min incubation the fluorescence was measured with a Pherastar (BMG, Germany) using the HTRF module (excitation 337 nm, emission 1: 620 nm, emission 2: 665 nm).
(§4) IC50 values were calculated by 4-Parameter fitting using a commercial software package (Genedata Screener, Switzerland).

[2] = biological target: human SOS1 (nucleotide exchange of K-Ras^G12C) (Homo sapiens, UniProt Q07889); assay: Biochemical assay 2: K-Ras^G12C activation assay by hSOS1 at high GTP concentration (HTRF); settings: read-out: Assay 2 (KRAS-Activation by SOS high GTP) activity expressed as % inhibition at 20 μM; high GTP; at 20 μM
From the text: Biochemical Assay 2: K-Ras^G12C Activation Assay by hSOS1 at High GTP Concentration
This assay quantifies human SOS1-mediated nucleotide exchange of K-Ras^G12C preloaded with a fluorescent […] and in presence of an excess of free GTP. Loaded hK-Ras^G12C generates a high HTRF-signal by energy transfer from antiGST-Terbium (FRET donor) bound to K-Ras to the loaded fluorescent GDP analog (FRET-acceptor). SOS1 activity exchanges the fluorescent GDP for non-fluorescent GTP and therefore leads to a reduction of the HTRF signal.
The fluorescent GDP-analog EDA-GDP-Dy647P1 (2′/3′-O-(2-Aminoethyl-carbamoyl)-guanosine-5′-diphosphate labelled with Dy647P1 (Dyomics GmbH, Germany)) was synthesized by Jena Biosciences GmbH (Germany) and supplied as a 1 mM aqueous solution.
Concentrations of protein batches used were optimized to be within the linear range of the HTRF signal.
Preparation of GST-tagged hK-Ras^Gl2C loaded with fluorescent nucleotide was performed as follows: incubation of 11.5 μM hK-Ras^Gl2C with 5-fold excess GDP-Dy647 nucleotide (54 μM) in 500 μl NLS-buffer (RAS activation Kit Jena Bioscience, Kat. #PR-950) for 10 min at 37° C. Addition of 20 μl 1 M MgCl2 (Sigma) to final 40 mM and store on ice. Purification into buffer (10 mM HEPES pH 7.4 (Applichem), 150 mM NaCl (Sigma), 5 mM MgCl2 (Sigma)) by use of a PD-Minitrap desalting column (GE Healthcare). Concentration of 1 ml purified hK-Ras-GDP-Dy647 is approx. 4-5 μM.
as §1
A Ras working solution was prepared in assay buffer containing typically 80 nM loaded GST-hK-RasG12C-EDA-GDP-Dy647P1 and 2 nM antiGST-Tb (Cisbio, France). A hSOS1 working solution was prepared in assay buffer containing typically 8 nM His-hSOS1 and 100 μM GTP (Jena Bioscience, Germany). An inhibitor control solution was prepared in assay buffer containing the same concentration of […].
as §2
as §3, with “2” for “10”, “20” for “30”
as §4

| SMILES | inhibition at 20 µM [1] | inhibition at 20 µM [2] |
| --- | --- | --- |
| COc1cc2nc(C)nc(N[C@@H](C)c3ccc(-c4cccc(CNS(C)(=O)=O)c4)s3)c2cc1OC (stereo in doubt) [Example 139, N-[3-(5-{1-[(6,7-dimethoxy-2-methylquinazolin-4-yl)amino]ethyl}thiophen-2-yl)benzyl]methanesulfonamide] | 41% |  |
| COc1cc2nc(C)nc(N[C@@H](C)c3ccc(-c4ccc5c(c4)OCO5)s3)c2cc1OC (stereo in doubt) [Example 163, N-{1-[5-(1,3-benzodioxol-5-yl)thiophen-2-yl]ethyl}-6,7-dimethoxy-2-methylquinazolin-4-amine] | 35% | 42% |
| CCCNC(=O)c1ccc(-c2ccc([C@H](C)Nc3nc(C)nc4cc(OC)c(OC)cc34)s2)cc1 (stereo in doubt) [Example 141, 4-(5-{1-[(6,7-dimethoxy-2-methylquinazolin-4-yl)amino]ethyl}thiophen-2-yl)-N-propylbenzamide] |  | 25% |
| COc1cc2nc(C)nc(N[C@@H](C)c3ccc(-c4cccc(C(=O)N(C)C)c4)s3)c2cc1OC (stereo in doubt) [Example 51, 3-(5-{1-[(6,7-dimethoxy-2-methylquinazolin-4-yl)amino]ethyl}thiophen-2-yl)-N,N-dimethylbenzamide] | 52% |  |
| COCc1ccccc1-c1ccc([C@H](C)Nc2nc(C)nc3cc(OC)c(OC)cc23)s1 (stereo in doubt) [Example 50, 6,7-dimethoxy-N-[1-{5-[2-(methoxymethyl)phenyl]thiophen-2-yl}ethyl]-2-methylquinazolin-4-amine] | 23% |  |
| COc1cc2nc(C)nc(N[C@@H](C)c3ccc(-c4cccc(S(C)(=O)=O)c4)s3)c2cc1OC (stereo in doubt) [Example 173, 6,7-dimethoxy-2-methyl-N-[1-{5-[3-(methylsulfonyl)phenyl]thiophen-2-yl}ethyl]quinazolin-4-amine] | 48% |  |
| COc1cc2nc(C)nc(N[C@@H](C)c3ccc(-c4ccc(CNC(C)=O)cc4)s3)c2cc1OC (stereo in doubt) [Example 138, N-[4-(5-{1-[(6,7-dimethoxy-2-methylquinazolin-4-yl)amino]ethyl}thiophen-2-yl)benzyl)acetamide] | 40% |  |
| COc1cc2nc(C)nc(N[C@@H](C)c3ccc(-c4cccc(NS(C)(=O)=O)c4)s3)c2cc1OC (stereo in doubt) [Example 165, N-[3-(5-{1-[(6,7-dimethoxy-2-methylquinazolin-4-yl)amino]ethyl}thiophen-2-yl)phenyl]methanesulfonamide] | 32% |  |
| COc1cc2nc(C)nc(N[C@@H](C)c3ccc(-c4ccc(S(C)(=O)=O)cc4)s3)c2cc1OC (stereo in doubt) [Example 149, 6,7-dimethoxy-2-methyl-N-[1-{5-[4-(methylsulfonyl)phenyl]thiophen-2-yl}ethyl]quinazolin-4-amine] | 17% |  |
| COc1cc2nc(C)nc(N[C@@H](C)c3ccc(-c4cccc(OC(F)(F)F)c4)s3)c2cc1OC (stereo in doubt) [Example 151, 6,7-dimethoxy-2-methyl-N-[1-{5-[3-(trifluoromethoxy)phenyl]thiophen-2-yl}ethyl]quinazolin-4-amine] |  | 51% |
| COc1cc2nc(C)nc(N[C@@H](C)c3ccc(-c4cccc(C(F)(F)F)c4)s3)c2cc1OC (stereo in doubt) [Example 168, 6,7-dimethoxy-2-methyl-N-[1-{5-[3-(trifluoromethyl)phenyl]thiophen-2-yl}ethyl]quinazolin-4-amine] | 32% | 38% |
| COc1cc2nc(C)nc(N[C@@H](C)c3ccc(-c4ccc5c(ccn5C)c4)s3)c2cc1OC (stereo in doubt) [Example 49, 6,7-dimethoxy-2-methyl-N-{1-[5-{1-methyl-1H-indol-5-yl)thiophen-2-yl]ethyl}quinazolin-4-amine] | 36% | 35% |
| COc1cc2nc(C)nc(N[C@@H](C)c3ccc(-c4ccc(CO)s4)s3)c2cc1OC (stereo in doubt) [Example 52, (5′-{1-[(6,7-dimethoxy-2-methylquinazolin-4-yl)amino]ethyl}-2,2′-bithiophen-5-yl)methanol] | 43% |  |
| COc1cc2nc(C)nc(N[C@@H](C)c3ccc(-c4ccc5c(c4)OCCO5)s3)c2cc1OC (stereo in doubt) [Example 98, N-{1-[5-(2,3-dihydro-1,4-benzodioxin-6-yl)thiophen-2-yl]ethyl}-6,7-dimethoxy-2-methylquinazolin-4-amine] | 24% | 43% |
| COc1cc2nc(C)nc(N[C@@H](C)c3ccc(-c4cncnc4)s3)c2cc1OC (stereo in doubt) [Example 42, 6,7-dimethoxy-2-methyl-N-{1-[5-(pyrimidin-5-yl)thiophen-2-yl]ethyl}quinazolin-4-amine] | 48% |  |
| COc1cc2nc(C)nc(N[C@@H](C)c3ccc(-c4ccc(-c5nnc(C)o5)cc4)s3)c2cc1OC (stereo in doubt) [Example 128, 6,7-dimethoxy-2-methyl-N-[1-{5-[4-(5-methyl-1,3,4-oxadiazol-2-yl)phenyl]thiophen-2-yl}ethyl]quinazolin-4-amine] | 16% |  |
| COc1cc2nc(C)nc(N[C@@H](C)c3ccc(-c4ccc(CNS(C)(=O)=O)cc4)s3)c2cc1OC (stereo in doubt) [Example 140, N-[4-(5-{1-[(6,7-dimethoxy-2-methylquinazolin-4-yl)amino]ethyl}thiophen-2-yl)benzyl]methanesulfonamide] | 33% |  |
| COc1cccc(-c2ccc([C@H](C)Nc3nc(C)nc4cc(OC)c(OC)cc34)s2)c1 (stereo in doubt) [Example 167, 6,7-dimethoxy-N-{1-[5-(3-methoxyphenyl)thiophen-2-yl]ethyl}-2-methylquinazolin-4-amine] | 37% | 40% |
| COc1cc2nc(C)nc(N[C@@H](C)c3ccc(-c4ccc(C(=O)N(C)C)cc4)s3)c2cc1OC (stereo in doubt) [Example 176, 4-(5-{1-[(6,7-dimethoxy-2-methylquinazolin-4-yl)amino]ethyl}thiophen-2-yl)-N,N-dimethylbenzamide] | 42% |  |
